Results taken from patent US7977355B2, “N-(2-hydroxyethyl)-N-methyl-4-(quinolin-8-yl(1-(thiazol-4-ylmethyl)piperidin-4-ylidene)methyl” (Astrazeneca AB, priority 2006, dated 2011).

Legend:
Thermodynamic solubility = assay type: physicochemical; settings: aqueous buffer, thermodynamic from solid, 25° C., 100 mM phosphate buffer at pH 7.4
Description: An aliqout of the saturated solution was then taken and its concentration measured by liquid chromatography/tandem mass spectrometry (LC/MS/MS). LC/MS/MS experimental conditions and instrumental parameters are described in detail in the LC/MS/MS section.

Log D (shake-flask) = assay type: physicochemical; settings: octanol/buffer
Description: The determination of log D was based on the shake-flask principle. The compound(s) of the present invention was slurried in an octanol-saturated buffer solution and sonicated to promote dissolution. The solution was filtered to remove any insoluble. After an initial sample was taken, the solution volume is adjusted to 10 ml, and a known volume of buffer-saturated octanol is added. The two-phase solution is mixed, then separated by centrifugation. A second sample from the bottom layer (aqueous layer) was then taken. Both samples, which represented the solution concentrations of the compound before and after addition of octanol, were determined by LC/MS/MS. The determined concentrations were used to calculated the log D value.

SMILES: CN(CCO)C(=O)c1ccc(C(=C2CCN(Cc3cscn3)CC2)c2cccc3cccnc23)cc1 [compound of the invention, N-(2-hydroxyethyl)-N-methyl-4-(quinolin-8-yl(1-(thiazol-4-ylmethyl)piperidin-4-ylidene)methyl)benzamide]
- solubility at 24 h (Thermodynamic solubility): > 500 µM
- logD (Log D (shake-flask)): 1.6
